# From patent publication US4062862A, “5-Benzyl-2-oxazolidone derivatives and a process for producing the same” (Nippon Chemiphar Co., Ltd., priority 1975, dated 1977)
# Assays:
# [1] = test system: acetic acid-induced writhing syndrome in mice; experiment: Analgetic effect, Acetic Acid-Induced Writhing Method; format: in vivo, dd Male mice; conditions: 100 mg/kg oral, 30 min before acetic acid; for Writhing syndrome (number within 20 minutes): control 52.1 ± 2.7; for Inhibitory per cent (writhing): vs control
# Experimental: dd Male mice weighing 18 to 22g, one group consisting of 10 animals, were given the intraperitoneal injection of 0.6% acetic acid in a dose of 0.1ml/10g-body weight. The number of writhing syndromes occurring within 20 minutes after injection was observed. Animals were orally given the test compounds suspended in 0.2% carboxymethylcellulose solution 30 minutes before the injection of acetic acid in a dose of 100mg/kg-body weight. Inhibitory percent was estimated in comparison with a control given the 0.2% carboxymethycellulose solution only. Aminopyrine was used as active placebo.
# [2] = test system: pain threshold in mice; experiment: Analgetic effect, Pressure Test (pain threshold, tail pressure); format: in vivo, dd Male mice; conditions: 100 mg/kg oral; for Pain threshold, Mean ± SE, 30 min / Pain threshold, Mean ± SE, 60 min / Pain threshold, Mean ± SE, 90 min / Pain threshold, Mean ± SE, 120 min: *p <0.05, **p <0.01, ***p <0.001
# Experimental: dd Male mice weighing 18 to 22 g (pain threshold ranging within 30 to 50 mmHg), one group consisting of 10 animals, were given orally the test compounds suspended in 0.2% carboxymethylcellulose solution in a dose of 100mg/kg-body weight. Pain threshold were measured at 30, 60, 90 and 120 minutes after the administration of the test compounds while pain reaction occurring by application of pressure on tails of animals was referred to as indication. Aminopyrine was used as active placebo.
# [3] = test system: carrageenan-induced edema in rats; experiment: Antiinflammatory effect on carrageenan-induced edema; format: in vivo, Wistar male rats; conditions: Table 5, 200 mg/kg oral
# Experimental: […] One hour after the administration of the test compounds, the hind paw was given a subcutaneous injection of 0.05ml of 0.5% carrageenan saline solution, and volume of the hind paw was measured at 1, 2, 3, 4, 5 and 6 hours after the injection of carrageenan by a volume differential meter. Inhibitory percent was calculated based on the swelling in the control. Phenybutazone was used as active placebo.
# [4] = test system: mice; experiment: Muscular relaxing effect, Corneal Reflex Test (C.r), oral, mice; format: in vivo, dd Male mice; conditions: Mus musculus; Table 1; oral; mice; maximum response 15-180 min; Litchfield Wilcoxon
# Experimental: (§1) dd Male mice weighing 18 to 22 g, one group consisting of 10 animals, were orally given the compounds (I) to (V) as indicated below suspended in 0.2% carboxymethylcellulose solution in a dose of 0.25ml/10g-body weight. Mephenesin was used as active placebo.
# Corneal reflex was observed by using mandolin wire for 1/4 injection syringe.
# [5] = test system: mice; experiment: Muscular relaxing effect, Righting Reflex Test (R.r), oral, mice; format: in vivo, dd Male mice; conditions: Mus musculus; Table 1; oral; mice; maximum response 15-180 min; Litchfield Wilcoxon
# Experimental: as §1
# [6] = test system: mice; experiment: Muscular relaxing effect, Inclined Plane Test (I.P), oral, mice; format: in vivo, dd Male mice; conditions: Mus musculus; Table 1; oral; mice; maximum response 15-180 min; Litchfield Wilcoxon
# Experimental: as §1
# Mice were placed on veneer inclined at an angle of 30° and on wire-netting inclined at an angle of 60° of which one division is 5 mm square, and mice sliding down were observed as positive, in comparison with normal behavior.
# [7] = test system: mice; experiment: Muscular relaxing effect, Traction Test (T.T), oral, mice; format: in vivo, dd Male mice; conditions: Mus musculus; Table 1; oral; mice; maximum response 15-180 min; Litchfield Wilcoxon
# Experimental: as §1
# [8] = test system: mice; experiment: Muscular relaxing effect, Pinna Reflex Test (P.r), oral, mice; format: in vivo, dd Male mice; conditions: Mus musculus; Table 1; oral; mice; maximum response 15-180 min; Litchfield Wilcoxon
# Experimental: as §1
# Pinna reflex was observed by using mandolin wire for 1/4 injection syringe.
# [9] = test system: mice; experiment: Muscular relaxing effect, Rotarod Method (R.R), oral, mice; format: in vivo, dd Male mice; conditions: Mus musculus; Table 1; oral; mice; maximum response 15-180 min; Litchfield Wilcoxon
# Experimental: as §1
# Mice were placed on Rotar Load (made by Natsume Seisakusho Co., Ltd.) having a diameter of 3 cm rotating at a speed of 10 rpm and falling (occurring within 3 minutes) was observed.
Structure (SMILES),Writhing syndrome (number within 20 minutes) [1],Inhibitory per cent (writhing) [1] [per cent],Pain threshold Increase Ratio [2],"Pain threshold, Mean ± SE, 30 min [2] [mmHg]","Pain threshold, Mean ± SE, 60 min [2] [mmHg]","Pain threshold, Mean ± SE, 90 min [2] [mmHg]","Pain threshold, Mean ± SE, 120 min [2] [mmHg]","Inhibitory per cent, carrageenan-induced edema, 3 hrs. [3] [per cent]","Inhibitory per cent, carrageenan-induced edema, 6 hrs. [3] [per cent]",ED50 [4] [mg/kg],ED50 [5] [mg/kg],ED50 [6] [mg/kg],ED50 [7] [mg/kg],ED50 [8] [mg/kg],ED50 [9] [mg/kg]
"Cc1c(N(C)C)c(=O)n(-c2ccccc2)n1C [Aminopyrine, reference compound]",19.3 ± 6.0,62.9,2.20,75.7 ± 5.4,67.3 ± 5.4,70.8 ± 5.3,53.1 ± 4.5,,,,,,,,
"O=C1NCC(Cc2ccc(Cl)cc2)O1 (stereo not drawn) [Compound V, 5-(p-chlorobenzyl)-2-oxazolidone]",45.5 ± 5.3,12.8,1.15,54.6 ± 4.9,51.3 ± 4.3,48.8 ± 2.7,48.2 ± 1.7,30.6,22.8,750,750,520,380,530,240
"O=C1NCC(Cc2ccccc2)O1 (stereo not drawn) [I, 5-benzyl-2-oxazolidone]",42.3 ± 5.9,18.9,1.34,58.2 ± 3.2,57.8 ± 3.2,51.5 ± 2.8,50.7 ± 2.2,49.5,13.0,,1100,940,660,800,460
"CN1CC(Cc2ccccc2)OC1=O (stereo not drawn) [II, 5-benzyl-3-methyl-2-oxazolidone]",45.9 ± 4.8,11.9,1.36,49.1 ± 4.5,49.2 ± 3.3,43.5 ± 4.7,36.3 ± 3.9,33.3,19.7,1100,810,500,500,520,340
"COc1ccccc1CC1CNC(=O)O1 (stereo not drawn) [III, 5-(o-methoxybenzyl)-2-oxazolidone]",39.1 ± 6.4,24.9,1.20,43.7 ± 4.9,46.5 ± 4.2,42.9 ± 3.1,39.2 ± 3.6,32.7,23.3,500,500,380,350,380,175
"O=C1NCC(Cc2ccccc2Cl)O1 (stereo not drawn) [IV, 5-(o-chlorobenzyl)-2-oxazolidone]",12.8 ± 3.6,75.4,1.89,69.8 ± 4.5,56.7 ± 5.3,53.3 ± 5.5,51.8 ± 6.2,16.8,15.9,560,660,330,390,< 500,210
